Key:
[1] = Electro-oxidation/reduction of species at indium tin oxide electrode (voltammetry); type: physicochemical
Description: FIG. 7B: Cyclic voltammetric study of the oxidation of Ascorbic acid test in ITO electrodes. Current increase around 0.25V indicates the start of oxidation at ITO electrodes.
Electrode material used: The electrode material was indium tin oxide. This is a semiconducting electrode surface with very large potential window in an aqueous solution.
Oxidation of ascorbic acid at the electrode surfaces produced H^+ ions and changed the electrode surface pH to a more acidic state: AH2→A+2H^++2e^−, where AH2 is ascorbic acid ([…]) (as shown in FIG. 5). The electrode potential at which it oxidizes was less than 0.5V for Indium tin oxide material vs Ag/AgCl reference electrode (as shown in FIG. 7). This potential was less than the voltages needed for the oxygen evolution reaction in aqueous solution. Higher electrode potential (e.g. >1V for ITO electrodes in just phosphate buffer) can damage the PEG layer (as shown in FIG. 8). The ascorbic acid also acted as a sacrificial species to prevent electrochemical degradation of the surface chemistry.
Reduction of benzoquinone (C6H4O2) into Hydroquinone (C6H6O2) can produce OH− ions at −0.1V: BQ+2e^−+2H2O→HQ+2OH^− This reduction reaction increased the pH at the electrode interface.

[2] = biological target: Green Fluorescent Protein (GFP) (Aequorea victoria, UniProt P42212); assay: GFP fluorescence intensity after incubation with benzoquinones (protein stability); type: biochemical; conditions: 0.5 mM benzoquinone, phosphate buffered saline, 30 min
Description: Para-benzoquinones and ortho-benzoquinones (compounds 2, 4, 6, and 9 in FIG. 22) are susceptible to nucleophilic attack at the double bond of the ring (positions 2, 3, 5 and 6 in structure 2 of FIG. 22, positions 3, 4, 5 and 6 in structure 4 of FIG. 22, and positions 2 and 3 in structure 6 of FIG. 22). Introducing substituents at some or all of those positions can mitigate the problem of nucleophilic attack. For example, 1,4-benzoquinone (structure 2 in FIG. 22, where R1, R2, R3 and R4 are H) undergoes Michael addition reaction with amino groups of proteins (Loomis et al., Phytochemistry, 5, 423, (1966) and U.S. Pat. No. 6,753,312 B2). […] Fluorescence intensity of Green Fluorescent Protein (GFP) was measured after incubation with three different benzoquinones in phosphate buffered saline for 30 min (concentration of benzoquinones was 0.5 mM). The difference in fluorescence intensity indicates the varied effect that the different substitutions in benzoquinones have on the stability of GFP. Fluorescence intensity of GFP is indicative of its structural integrity. Losses in fluorescence intensity usually indicate loss of its tertiary structure (protein denaturation) (Yin D. X., Zhu L., Schimke R. T. Anal. Biochem. 1996, 235:195-201).

Row | start of oxidation (current increase), cyclic voltammetry ([1]; ITO electrodes) | electrode potential at which it oxidizes ([1]; Indium tin oxide vs Ag/AgCl reference electrode) | Structure (SMILES) | potential of reduction into hydroquinone producing OH- ions [1] [V] | loss in GFP fluorescence intensity [2] [%]
1 | – | – | O=C1C=CC(=O)C=C1 [unsubstituted benzoquinone, 1,4-benzoquinone] | −0.1 | 25
2 | around 0.25 V | less than 0.5 V | O=C1O[C@H]([C@@H](O)CO)C(O)=C1O [ascorbic acid] | – | –
